These results are taken from US20240110004A1 (Northwestern University, priority 2022, published 2024).

The test system of data set [1] is HdhQ111 cells. Put plainly: Cell viability (cell rescue) of serum-starved HdhQ111 cells. It counts as cell-based, mouse. Conditions: 3 μM with respect to peptide, once a day for 3 days; compared to the vehicle control. On the procedure:
FIG. 3A: Cell viability of HV3-TAT peptide and PLPs. Compounds treated to the HdhQ111 cells once a day for 3 days. Concentration was 3 μM with respect to peptide. FIG. 3B: VCP binding assay results for HV3-TAT, P1, P2, and P4.
Cell Viability Methods: In vitro assays were carried out to examine the bioactivity of the PLPs, P1, P2, P3, and P4 and to compare against the known, active HV3-TAT. […] HdhQ111 cells were immortalized from knock-in mice carrying 111 CAG repeats in the mouse Htt gene.
To verify that the PLPs retain bioactivity after being exposed to enzymes or serum treatments, the viability of HD mouse mutant striatal HdhQ111 cells was assessed following treatment with HV3-TAT and P1. […] Cells were maintained at 33° C. and 5% CO2 with a relative humidity of 95%. HdQ111 cells were plated in 96-well plates at a density of 5000 per well and then left to attach for 24 h. Cells were treated with HV3-TAT or PLPs at 3 μM with respect to peptide once a day, for 3 days. The medium was replaced every day. After 72 h, cells were washed 3 times with PBS buffer. At this point, 20 μL of CTB reagent in 80 uL of medium was added, and the cells incubated for 3 hours at 37° C. Fluorescence was measured at 590 nm with excitation at 560 nm using a Perkin Elmer EnSpire plate reader. The average background fluorescence of CTB in media without cells was subtracted from the average fluorescence readings of the experimental wells. Viability was calculated as the average background-subtracted signal in a well compared to that of a negative control well (treatment with vehicle or media). Three replicates were performed for each independent sample. 10% DMSO was used as a positive control and untreated cells in complete medium as a negative control. Viability is reported as a percentage of untreated cells.

For data set [2], the system named is HdhQ111 cells. Put plainly: Cell uptake by confocal microscopy and flow cytometry. It is filed as cell-based, mouse. Conditions: compared to the HV3-TAT-Rho peptide and rhodamine dye control. On the procedure:
Scale bars: 60 μm; 12 μm for inset. Cell Membrane: wheat germ agglutinin-Alexa 488 (green channel). Material: Rhodamine (red channel). Nuclei: Hoechst 33342 stain (blue channel).
Cell Uptake Methods: A major drawback for most peptide-based drugs is poor innate cell membrane permeability, such that many peptide-based drugs fail to reach their putative intracellular targets. Cellular uptake was evaluated by confocal microscopy and flow cytometry using a rhodamine dye labeled version of HV3-TAT (HV3-TAT-Rho) and a rhodamine labeled version of P1 (P1-Rho, e.g., as shown in FIG. 28A). FIG. 28B provides the relative fluorescent intensities of rhodamine alone, HV3-TAT-Rho, and P1-Rho—rhodamine showing near 1:1 addition of dye on to compounds.
For orientation: In flow cytometry, cells or beads pass a laser one at a time.

The subject of data set [3] is HdhQ111 cells. Briefly: Accumulation assay, flow cytometry 2 and 7 days after a single treatment. It counts as cell-based, mouse. Particulars: two and seven days after one treatment.
For data set [4], the system named is HdhQ111 cells. Briefly: Mitochondrial localization in live HdhQ111 cells. Particulars: 3 μM, Mitotracker staining. It is filed as cell-based, mouse. On the procedure: FIG. 7: Mitochondrial localization in live HdhQ111 cells. HdhQ111 cells were treated with HV3-TAT-Rho peptide, P1-Rho, and rhodamine dye alone at a concentration of 3 μM. Yellow (i.e., “localization” in FIG. 7) indicates colocalization of green and red channels, signifying localization to the mitochondria. Mitochondria: Mitotracker Green FM (green channel). Material: Rhodamine (red channel). Nuclei: Hoechst 33342 stain (blue channel). Scale Bars: 60 μm; 12 μm for inset.
Mitochondrial Localization Methods: A decisive pathologic hallmark for HdhQ111 cells is mitochondrial fragmentation. Since the mitochondrial membrane is the specific intracellular target location for the designed system, mitochondrial localization of P1-Rho in HdhQ111 cells was evaluated. To visualize mitochondrial localization, the mitochondria were stained with Mito Tracker.

Data set [5] has as its system HdhQ111 cells. Briefly: Mitochondrial fragmentation assay. It counts as cell-based, mouse. Conditions: compared to vehicle treatment group, at least 100 cells per group. On the procedure:
FIG. 8: Mitochondrial fragmentation assay. The percentage of HdhQ111 cells with fragmented mitochondria relative to the total number of cells was quantitated. At least 100 cells per group were counted.
FIG. 9: Mitochondrial fragmentation assay. Mitochondrial morphology was determined by staining cells with anti-Tom20 antibody. Nuclei: Hoechst 33342 stain. […] Scale Bars: 60 μm; 12 μm for inset.
Mitochondrial Fragmentation Methods: As preventing the fragmentation of the mitochondria is important for maintaining the health of striatal cells in the HD in vitro model, the PLP's abilities were tested in this regard.

Data set [6] addresses T1, interaction between VCP and mtHtt (Homo sapiens, UniProt P55072).
T1 construct: GFP; expressed in transfected cells; host or cells: HEK293
Put plainly: VCP binding assay: association of VCP to mtHtt by immunoprecipitation and western blot in HEK293 cells. It counts as cell-based. Particulars: HEK293 cells co-transfected with GFP-VCP and myc-Q73 FL, 3 μM, three doses. On the procedure: Therefore, target engagement protein binding assays were conducted. HEK293 cells were cultured and plated one day before treatment. Cells were pre-treated with HV3-TAT or PLPs at 3 μM for 2 h. Cells were then co-transfected with GFP-VCP and myc-Q73 FL plasmids. Cells were treated with a second dose of peptide or PLPs 6 hours after transfection, and a final third dose of peptide or PLPs treatment was administered 24 hours after transfection. Cell total lysate was harvested 48 hours after transfection, and to confirm binding of PLPs to VCP in cells, association of VCP to mtHtt was quantified by immunoprecipitation (IP) followed by western blot upon treatment of HV3-TAT peptide and PLPs.
On the technique in general: Immunoblotting shows a protein as a band on a membrane.

A short description of data set [7]: enzymes (0.1 μM) in DPBS (pH 7.4) or hydrochloric acid solution (pH 2). Conditions: 37° C.
Data set [8] in a line: Dulbecco's modified Eagle medium (DMEM) supplemented with 10% fetal bovine serum (FBS). Conditions: 37° C.
A short description of data set [9]: Dulbecco's modified Eagle medium (DMEM) supplemented with 25% fetal bovine serum (FBS). Particulars: 37° C.
The subject of the next data set is pepsin. Briefly: pepsin. Particulars: 37° C., up to 450 min.
The conditions of data set [10]: mouse, in vivo.

Where no end group is shown, it is not given here.

T1 sequence (P55072 whole entry): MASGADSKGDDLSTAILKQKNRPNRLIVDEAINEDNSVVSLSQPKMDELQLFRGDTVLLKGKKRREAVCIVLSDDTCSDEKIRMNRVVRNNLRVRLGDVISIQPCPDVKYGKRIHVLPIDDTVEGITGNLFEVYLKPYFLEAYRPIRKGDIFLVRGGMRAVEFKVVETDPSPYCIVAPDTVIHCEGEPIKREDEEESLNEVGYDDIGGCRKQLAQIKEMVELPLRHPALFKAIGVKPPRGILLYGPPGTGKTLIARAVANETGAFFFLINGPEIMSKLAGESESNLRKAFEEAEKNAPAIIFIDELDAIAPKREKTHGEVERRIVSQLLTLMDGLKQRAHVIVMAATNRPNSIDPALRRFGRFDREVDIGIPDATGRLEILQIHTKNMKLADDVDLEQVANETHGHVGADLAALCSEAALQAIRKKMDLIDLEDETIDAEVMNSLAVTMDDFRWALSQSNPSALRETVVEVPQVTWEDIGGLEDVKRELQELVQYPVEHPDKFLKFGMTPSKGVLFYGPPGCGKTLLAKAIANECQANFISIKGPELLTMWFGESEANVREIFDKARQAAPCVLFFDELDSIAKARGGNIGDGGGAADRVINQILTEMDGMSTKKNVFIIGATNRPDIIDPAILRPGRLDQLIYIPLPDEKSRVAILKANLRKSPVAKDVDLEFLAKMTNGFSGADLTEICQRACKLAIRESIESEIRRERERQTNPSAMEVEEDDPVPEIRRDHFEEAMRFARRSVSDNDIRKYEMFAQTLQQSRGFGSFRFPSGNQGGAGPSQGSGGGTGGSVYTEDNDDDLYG

With “P2: PLP homopolymer having peptide side chains of SEQ ID: 2 (HVLVMSATKK) (HVLVMSATKK-NH2; not fully specified (N-terminus); also: side chains of polynorbornene homopolymer (PLP))”, the cell viability entry with HdhQ111 cells [1] is “higher significance than P3”.
As for “P1-Rho: rhodamine labeled version of P1 (HVLVMSATRR-NH2; not fully specified (N-terminus); also: side chains of polynorbornene homopolymer (PLP), rhodamine label (site not given here))”, in the data set on HdhQ111 cells [2], the “cell association by flow cytometry” value is given as “significantly better cell association”. Further, the “presence of compound in cells after one initial treatment” value in the data set on HdhQ111 cells [3] is “detected”. Also, the mitochondrial localization entry in the data set with HdhQ111 cells [4] is reported as “exhibited overlapping signals with mitochondria”.
Consider “P4: PLP homopolymer having peptide side chains of SEQ ID: 4 (HVLVMSATKKKK) (HVLVMSATKKKK-NH2; not fully specified (N-terminus); also: side chains of polynorbornene homopolymer (PLP))”, for which the fragmented mitochondria entry in the data set with HdhQ111 cells [5] is “significantly fewer fragmented mitochondria”. Further, the cell viability result in the data set on HdhQ111 cells [1] was “higher significance than P3”. For the same substance, the “association of VCP to mtHtt (VCP binding)” value in data set [6] is on record as “exhibited evidence for binding”.
“PLP homopolymer having peptide side chains of SEQ ID: 1 (HVLVMSATRR)”: the not cleaved result is listed as “maintained molecular weight running together with the untreated P1 control” in data set [7], “stability of P1 seen with serum treatments” in data set [8], “stability of P1 seen with serum treatments” in [9] and “no cleavage observed for up to 450 min” in the data set on pepsin.
Turning to “P1-Gd: P1 PLP terminated with the Gd-DOTA terminating agent (contrast agent tag) for ICPMS quantification (HVLVMSATRR-NH2; not fully specified (N-terminus); also: side chains of polynorbornene homopolymer (PLP, ROMP), Gd-DOTA terminating agent on polymer terminus)”, in data set [10], the “biodistribution, main organs” value is “majority of the compound injected ends up in the liver and kidney”; the “detection in the CNS” value was “detectable in the CNS”; the “increase in half-life compared to the HV3-TAT peptide” value was 3000 fold. Further, in data set [10] (iv, 10 mg/kg), the distribution half-life turned out to be 0.333 h and the elimination half-life amounted to 152 h.
